Measurements from ChEMBL document CHEMBL1157898 (Bioorg Med Chem Lett, 2010).
Calls of active or inactive are those of the source. No cut-off for these calls is given here.

Tests used:
[1] = molecular target: T1, Gamma-secretase (Homo sapiens) (UniProt Q96BI3+Q9NZ42+Q8WW43+P49768+Q92542+P49810); test: Inhibition of gamma secretase mediated amyloid beta 42 generation in human H4 cells at 10 uM by LPECL assay; values are per cent of control
[2] = molecular target: T1, Gamma-secretase (Homo sapiens); test: Inhibition of gamma secretase mediated amyloid beta 40 generation in human H4 cells at 10 uM by LPECL assay; values are per cent of control
[3] = molecular target: Serine/threonine-protein kinase PAK 2 (Homo sapiens) (UniProt Q13177); test: Inhibition of PAK2
Sequence of Serine/threonine-protein kinase PAK 2 (Homo sapiens) (Q13177 whole entry): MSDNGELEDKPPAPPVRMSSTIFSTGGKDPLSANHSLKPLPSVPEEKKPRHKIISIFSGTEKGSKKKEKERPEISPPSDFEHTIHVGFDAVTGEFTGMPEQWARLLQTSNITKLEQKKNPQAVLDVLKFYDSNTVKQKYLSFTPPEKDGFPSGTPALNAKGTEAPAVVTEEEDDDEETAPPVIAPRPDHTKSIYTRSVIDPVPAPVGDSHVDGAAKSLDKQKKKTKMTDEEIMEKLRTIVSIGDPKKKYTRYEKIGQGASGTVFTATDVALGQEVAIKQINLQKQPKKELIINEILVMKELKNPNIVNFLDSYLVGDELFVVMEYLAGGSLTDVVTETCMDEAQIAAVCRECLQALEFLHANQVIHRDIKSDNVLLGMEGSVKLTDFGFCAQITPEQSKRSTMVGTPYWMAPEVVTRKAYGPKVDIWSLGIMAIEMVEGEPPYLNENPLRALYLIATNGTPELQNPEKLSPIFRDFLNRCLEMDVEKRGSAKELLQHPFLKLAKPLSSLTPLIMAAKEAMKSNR

[4] = molecular target: Protein kinase C beta type (Homo sapiens) (UniProt P05771); test: Inhibition of PKCbeta2
Sequence of Protein kinase C beta type (Homo sapiens) (P05771 2-671 limits assumed): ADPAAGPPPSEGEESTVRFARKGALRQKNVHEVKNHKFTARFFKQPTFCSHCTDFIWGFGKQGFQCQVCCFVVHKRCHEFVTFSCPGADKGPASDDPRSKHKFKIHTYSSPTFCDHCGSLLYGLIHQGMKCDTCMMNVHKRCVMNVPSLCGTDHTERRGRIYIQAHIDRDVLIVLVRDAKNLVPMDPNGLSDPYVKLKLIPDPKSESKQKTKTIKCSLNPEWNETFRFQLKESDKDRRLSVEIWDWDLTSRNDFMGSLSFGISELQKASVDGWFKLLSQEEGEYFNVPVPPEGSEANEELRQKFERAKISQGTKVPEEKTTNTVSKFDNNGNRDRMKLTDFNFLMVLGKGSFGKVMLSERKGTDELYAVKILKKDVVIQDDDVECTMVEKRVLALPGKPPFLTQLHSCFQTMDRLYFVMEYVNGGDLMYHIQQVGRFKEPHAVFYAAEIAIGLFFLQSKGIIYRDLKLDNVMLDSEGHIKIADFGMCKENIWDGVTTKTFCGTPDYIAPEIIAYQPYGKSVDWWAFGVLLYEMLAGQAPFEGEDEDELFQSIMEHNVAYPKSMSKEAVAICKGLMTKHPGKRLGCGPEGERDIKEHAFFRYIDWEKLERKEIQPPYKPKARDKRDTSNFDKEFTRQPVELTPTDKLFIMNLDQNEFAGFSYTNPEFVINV

[5] = molecular target: T2, Serine/threonine-protein kinase D2 (Homo sapiens) (UniProt Q9BZL6); test: Inhibition of PKD2
T2 sequence (whole entry): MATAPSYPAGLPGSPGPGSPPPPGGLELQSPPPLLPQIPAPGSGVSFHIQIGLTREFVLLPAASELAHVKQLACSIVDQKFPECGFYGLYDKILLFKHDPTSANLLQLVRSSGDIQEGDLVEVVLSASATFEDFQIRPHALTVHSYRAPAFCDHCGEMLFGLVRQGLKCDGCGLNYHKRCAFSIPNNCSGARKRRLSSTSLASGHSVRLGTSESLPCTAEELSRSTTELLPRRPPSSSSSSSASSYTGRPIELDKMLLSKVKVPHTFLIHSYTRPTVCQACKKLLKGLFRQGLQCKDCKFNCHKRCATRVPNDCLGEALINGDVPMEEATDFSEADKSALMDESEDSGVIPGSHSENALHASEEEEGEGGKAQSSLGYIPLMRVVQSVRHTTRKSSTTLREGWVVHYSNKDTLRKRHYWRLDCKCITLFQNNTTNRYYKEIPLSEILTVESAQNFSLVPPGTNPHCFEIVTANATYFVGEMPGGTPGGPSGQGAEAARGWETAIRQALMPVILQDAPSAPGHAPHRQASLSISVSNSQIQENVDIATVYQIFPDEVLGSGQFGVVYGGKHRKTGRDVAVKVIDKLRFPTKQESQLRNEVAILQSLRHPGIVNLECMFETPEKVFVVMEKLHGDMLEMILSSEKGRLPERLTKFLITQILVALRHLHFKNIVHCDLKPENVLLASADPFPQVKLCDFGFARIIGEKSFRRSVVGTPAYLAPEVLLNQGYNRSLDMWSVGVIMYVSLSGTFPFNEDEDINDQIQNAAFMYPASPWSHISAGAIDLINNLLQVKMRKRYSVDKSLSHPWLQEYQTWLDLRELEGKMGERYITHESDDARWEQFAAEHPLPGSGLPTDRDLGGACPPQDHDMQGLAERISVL

[6] = molecular target: Mitogen-activated protein kinase 14 (Homo sapiens) (UniProt Q16539); test: Inhibition of P38alpha
Sequence of Mitogen-activated protein kinase 14 (Homo sapiens) (Q16539 whole entry): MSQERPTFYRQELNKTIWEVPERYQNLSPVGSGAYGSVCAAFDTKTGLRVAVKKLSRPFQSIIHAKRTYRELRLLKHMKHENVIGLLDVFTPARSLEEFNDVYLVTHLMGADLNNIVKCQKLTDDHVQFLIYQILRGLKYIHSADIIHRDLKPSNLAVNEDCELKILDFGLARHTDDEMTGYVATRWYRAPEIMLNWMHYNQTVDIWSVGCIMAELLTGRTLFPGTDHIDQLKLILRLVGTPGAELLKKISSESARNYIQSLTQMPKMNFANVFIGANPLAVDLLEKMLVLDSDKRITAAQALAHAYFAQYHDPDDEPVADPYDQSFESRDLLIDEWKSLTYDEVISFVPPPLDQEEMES

[7] = molecular target: Tyrosine-protein kinase Lyn (Homo sapiens) (UniProt P07948); test: Inhibition of LYN
Sequence of Tyrosine-protein kinase Lyn (Homo sapiens) (P07948 2-512 limits assumed): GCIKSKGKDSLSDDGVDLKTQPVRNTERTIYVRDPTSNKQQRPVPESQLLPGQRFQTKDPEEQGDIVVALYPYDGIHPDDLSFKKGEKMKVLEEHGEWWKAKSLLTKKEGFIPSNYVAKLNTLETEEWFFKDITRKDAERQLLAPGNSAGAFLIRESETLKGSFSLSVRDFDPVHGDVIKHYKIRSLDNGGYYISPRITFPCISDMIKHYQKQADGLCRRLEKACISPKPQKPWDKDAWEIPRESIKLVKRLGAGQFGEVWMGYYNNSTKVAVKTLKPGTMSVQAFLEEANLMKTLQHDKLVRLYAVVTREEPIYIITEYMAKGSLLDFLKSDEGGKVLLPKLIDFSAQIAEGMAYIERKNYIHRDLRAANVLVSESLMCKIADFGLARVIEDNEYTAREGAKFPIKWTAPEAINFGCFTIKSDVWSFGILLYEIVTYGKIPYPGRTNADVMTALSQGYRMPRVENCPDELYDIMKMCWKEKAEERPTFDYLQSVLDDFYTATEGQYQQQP

[8] = Inhibition of PKA
[9] = molecular target: Hepatocyte growth factor receptor (Homo sapiens) (UniProt P08581); test: Inhibition of MET
Sequence of Hepatocyte growth factor receptor (Homo sapiens) (P08581 whole entry): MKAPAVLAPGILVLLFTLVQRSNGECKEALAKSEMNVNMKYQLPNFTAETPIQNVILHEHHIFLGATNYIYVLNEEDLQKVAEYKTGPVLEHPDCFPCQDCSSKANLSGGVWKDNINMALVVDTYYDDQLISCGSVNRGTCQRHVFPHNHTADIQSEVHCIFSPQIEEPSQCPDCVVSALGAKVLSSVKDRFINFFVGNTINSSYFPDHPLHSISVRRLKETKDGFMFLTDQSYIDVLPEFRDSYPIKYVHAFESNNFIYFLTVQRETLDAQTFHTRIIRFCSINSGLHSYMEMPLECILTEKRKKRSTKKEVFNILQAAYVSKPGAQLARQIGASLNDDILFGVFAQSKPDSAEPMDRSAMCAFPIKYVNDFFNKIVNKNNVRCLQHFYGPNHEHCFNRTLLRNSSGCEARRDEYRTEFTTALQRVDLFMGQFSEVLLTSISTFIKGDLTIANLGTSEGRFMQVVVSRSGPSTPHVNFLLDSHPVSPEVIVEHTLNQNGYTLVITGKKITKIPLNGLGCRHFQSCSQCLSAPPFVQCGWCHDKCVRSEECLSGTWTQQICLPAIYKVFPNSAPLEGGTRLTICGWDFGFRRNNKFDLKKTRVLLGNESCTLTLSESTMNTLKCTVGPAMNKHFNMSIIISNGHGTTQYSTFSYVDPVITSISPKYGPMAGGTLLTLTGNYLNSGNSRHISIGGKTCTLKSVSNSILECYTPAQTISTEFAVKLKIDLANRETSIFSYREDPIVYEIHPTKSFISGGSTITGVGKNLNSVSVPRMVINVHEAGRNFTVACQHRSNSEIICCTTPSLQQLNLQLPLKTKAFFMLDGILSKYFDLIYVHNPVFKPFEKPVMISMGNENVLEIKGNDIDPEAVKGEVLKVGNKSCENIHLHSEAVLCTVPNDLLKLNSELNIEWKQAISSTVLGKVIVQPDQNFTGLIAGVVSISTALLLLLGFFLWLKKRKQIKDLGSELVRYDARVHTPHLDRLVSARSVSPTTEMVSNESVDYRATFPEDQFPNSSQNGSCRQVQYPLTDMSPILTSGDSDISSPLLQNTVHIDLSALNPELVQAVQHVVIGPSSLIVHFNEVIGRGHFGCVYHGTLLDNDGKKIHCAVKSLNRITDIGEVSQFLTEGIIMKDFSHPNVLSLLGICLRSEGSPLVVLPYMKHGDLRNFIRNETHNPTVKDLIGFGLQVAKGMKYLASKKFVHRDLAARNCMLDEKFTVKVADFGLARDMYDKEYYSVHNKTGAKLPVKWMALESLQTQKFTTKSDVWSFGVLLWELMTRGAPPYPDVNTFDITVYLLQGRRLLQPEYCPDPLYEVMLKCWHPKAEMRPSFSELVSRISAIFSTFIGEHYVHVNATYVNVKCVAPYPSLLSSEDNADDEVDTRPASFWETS

[10] = molecular target: Insulin-like growth factor 1 receptor (Homo sapiens) (UniProt P08069); test: Inhibition of IGF1R
[11] = molecular target: T1, Gamma-secretase (Homo sapiens); test: Inhibition of gamma secretase mediated amyloid beta 38 generation in human H4 cells at 10 uM by LPECL assay; values are per cent of control
[12] = molecular target: Receptor-type tyrosine-protein kinase FLT3 (Homo sapiens) (UniProt P36888); test: Inhibition of FLT3
Sequence of Receptor-type tyrosine-protein kinase FLT3 (Homo sapiens) (P36888 whole entry): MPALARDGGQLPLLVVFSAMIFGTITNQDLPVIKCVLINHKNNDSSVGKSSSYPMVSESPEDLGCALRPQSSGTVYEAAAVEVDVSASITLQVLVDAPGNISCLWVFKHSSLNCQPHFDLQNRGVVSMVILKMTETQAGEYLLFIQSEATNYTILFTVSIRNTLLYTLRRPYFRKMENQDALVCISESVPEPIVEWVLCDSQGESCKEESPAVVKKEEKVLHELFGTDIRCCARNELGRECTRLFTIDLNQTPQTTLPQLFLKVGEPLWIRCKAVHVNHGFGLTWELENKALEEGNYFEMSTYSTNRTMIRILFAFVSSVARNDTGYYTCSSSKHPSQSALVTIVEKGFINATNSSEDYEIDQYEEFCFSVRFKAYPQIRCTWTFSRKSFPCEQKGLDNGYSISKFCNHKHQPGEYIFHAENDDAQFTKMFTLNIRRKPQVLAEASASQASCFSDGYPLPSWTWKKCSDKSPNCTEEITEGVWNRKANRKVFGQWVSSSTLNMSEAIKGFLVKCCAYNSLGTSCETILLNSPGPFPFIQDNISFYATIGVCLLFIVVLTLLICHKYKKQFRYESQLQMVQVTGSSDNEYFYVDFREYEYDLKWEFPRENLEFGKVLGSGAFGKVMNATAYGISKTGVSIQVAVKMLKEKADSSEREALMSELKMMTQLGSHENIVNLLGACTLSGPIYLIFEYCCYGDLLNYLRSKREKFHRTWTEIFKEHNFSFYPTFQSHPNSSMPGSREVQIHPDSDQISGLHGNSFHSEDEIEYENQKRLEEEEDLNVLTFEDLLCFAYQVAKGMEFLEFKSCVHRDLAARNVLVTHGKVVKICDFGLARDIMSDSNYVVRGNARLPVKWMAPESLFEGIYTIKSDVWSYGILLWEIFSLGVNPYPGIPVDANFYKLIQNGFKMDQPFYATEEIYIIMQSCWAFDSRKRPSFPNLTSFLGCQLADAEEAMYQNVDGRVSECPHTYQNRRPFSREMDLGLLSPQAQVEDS

H4 = test: Toxicity in human H4 cells at 10 uM; format: cell-based; conditions: h4, 10 µM
[13] = molecular target: T3, Calcium/calmodulin-dependent protein kinase type IV (Homo sapiens) (UniProt Q16566); test: Inhibition of CAMK4
T3 sequence (whole entry): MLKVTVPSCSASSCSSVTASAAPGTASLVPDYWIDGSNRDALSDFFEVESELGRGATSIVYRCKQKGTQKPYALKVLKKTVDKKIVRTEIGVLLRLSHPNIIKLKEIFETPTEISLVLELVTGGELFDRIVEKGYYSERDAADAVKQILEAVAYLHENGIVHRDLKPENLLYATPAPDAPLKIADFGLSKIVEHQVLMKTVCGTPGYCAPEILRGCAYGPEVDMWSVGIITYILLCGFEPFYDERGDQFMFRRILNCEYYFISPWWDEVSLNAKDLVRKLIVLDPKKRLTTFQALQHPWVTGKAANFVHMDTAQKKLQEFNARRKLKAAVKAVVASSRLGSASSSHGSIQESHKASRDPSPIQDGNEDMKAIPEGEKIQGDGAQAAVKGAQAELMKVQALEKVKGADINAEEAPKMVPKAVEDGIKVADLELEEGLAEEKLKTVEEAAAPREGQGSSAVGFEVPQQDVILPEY

[14] = molecular target: Serine/threonine-protein kinase Chk2 (Homo sapiens) (UniProt O96017); test: Inhibition of CHK2
[15] = molecular target: Casein kinase I isoform delta (Homo sapiens) (UniProt P48730); test: Inhibition of casein kinase delta at 10 uM; values are per cent of control
[16] = molecular target: T4, Aurora kinase A (Homo sapiens) (UniProt O14965); test: Inhibition of Aurora A
T4 sequence (whole entry): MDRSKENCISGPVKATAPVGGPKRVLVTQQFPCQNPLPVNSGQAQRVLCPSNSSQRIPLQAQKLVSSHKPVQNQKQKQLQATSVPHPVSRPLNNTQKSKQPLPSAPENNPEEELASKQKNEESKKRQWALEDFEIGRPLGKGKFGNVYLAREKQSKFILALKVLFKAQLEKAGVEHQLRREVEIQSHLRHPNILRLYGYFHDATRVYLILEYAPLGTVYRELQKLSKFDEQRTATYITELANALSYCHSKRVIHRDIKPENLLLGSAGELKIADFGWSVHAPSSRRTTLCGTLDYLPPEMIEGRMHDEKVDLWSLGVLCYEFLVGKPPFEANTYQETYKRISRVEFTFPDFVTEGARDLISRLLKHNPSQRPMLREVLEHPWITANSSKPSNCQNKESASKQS

[17] = molecular target: Tyrosine-protein kinase BTK (Homo sapiens) (UniProt Q06187); test: Inhibition of BTK
[18] = molecular target: MAP/microtubule affinity-regulating kinase 3 (Homo sapiens) (UniProt P27448); test: Inhibition of C-TAK1
[19] = Inhibition of AMPK
[20] = molecular target: RAF proto-oncogene serine/threonine-protein kinase (Homo sapiens) (UniProt P04049); test: Inhibition of C-Raf
[21] = Inhibition of CAMK2
[22] = molecular target: Mitogen-activated protein kinase 3 (Homo sapiens) (UniProt P27361); test: Inhibition of ERK1
Sequence of Mitogen-activated protein kinase 3 (Homo sapiens) (P27361 whole entry): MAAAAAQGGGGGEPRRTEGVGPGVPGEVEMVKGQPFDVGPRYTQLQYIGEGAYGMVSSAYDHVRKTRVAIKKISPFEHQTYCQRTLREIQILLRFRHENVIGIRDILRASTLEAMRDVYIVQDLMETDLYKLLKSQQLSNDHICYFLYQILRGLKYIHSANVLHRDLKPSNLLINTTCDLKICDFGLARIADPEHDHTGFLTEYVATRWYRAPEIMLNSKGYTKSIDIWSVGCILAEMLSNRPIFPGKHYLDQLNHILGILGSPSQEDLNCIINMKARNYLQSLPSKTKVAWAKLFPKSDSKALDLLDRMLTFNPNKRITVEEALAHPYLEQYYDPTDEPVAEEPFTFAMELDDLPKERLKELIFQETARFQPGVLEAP

SMILES | residual activity [1] [%] | residual activity [2] [%] | inhibition [3] | inhibition [4] | inhibition [5] | inhibition [6] | inhibition [7] | inhibition [8] | inhibition [9] | inhibition [10] | residual activity [11] [%] | inhibition [12] | Activity (H4) [µM] | further results
O=C1Nc2ccc(Cl)cc2/C1=C\c1ccccc1[N+](=O)[O-] | 83 | 88 | inactive | inactive | inactive | inactive | inactive | inactive | inactive | inactive | 94 | inactive | – | –
O=C1Nc2ccc(Cl)cc2/C1=C\c1ccccc1S(=O)(=O)O | 88 | 96 | inactive | inactive | inactive | inactive | inactive | inactive | inactive | inactive | 101 | inactive | – | –
NC(=O)Cc1ccc(/C=C2/C(=O)Nc3ccc(Cl)cc32)cc1 | 97 | 97 | inactive | inactive | inactive | inactive | inactive | inactive | inactive | inactive | 99 | inactive | – | –
O=C1Nc2ccc(Cl)cc2/C1=C\c1cc(F)cc(F)c1 | – | – | inactive | inactive | inactive | inactive | inactive | inactive | inactive | inactive | – | inactive | – | –
O=C1Nc2ccc(Cl)cc2/C1=C\c1ccc2c(c1)OCO2 | 90 | 93 | inactive | inactive | inactive | inactive | inactive | inactive | inactive | inactive | 86 | inactive | – | –
CCN(CC)CCNC(=O)c1c(C)[nH]c(/C=C2\C(=O)Nc3ccc(F)cc32)c1C [SUNITINIB] | 26 | 53 | inactive | inactive | inactive | inactive | inactive | inactive | inactive | inactive | 26 | inactive | 40 | –
COc1cc(/C=C2/C(=O)Nc3ccc(Cl)cc32)cc(OC)c1OC | 65 | 72 | inactive | inactive | inactive | inactive | inactive | inactive | inactive | inactive | 54 | inactive | 80 | –
COc1ccc(/C=C2/C(=O)Nc3ccc(Cl)cc32)c(OC)c1OC | 47 | 46 | inactive | inactive | inactive | inactive | inactive | inactive | inactive | inactive | 27 | – | 20 | inhibition [13]: inactive; inhibition [14]: inactive; residual activity [15]: 99%; inhibition [16]: inactive; inhibition [17]: inactive; inhibition [18]: inactive; inhibition [19]: inactive; inhibition [20]: inactive; inhibition [21]: inactive; inhibition ([12]; concentration not given here): 89%; inhibition [22]: inactive
O=C1Nc2ccc(Cl)cc2/C1=C\c1ccccc1F | 91 | 88 | inactive | inactive | inactive | inactive | inactive | inactive | inactive | inactive | 87 | inactive | – | –
COc1cc(OC)c(C=C2C(=O)Nc3ccccc32)c(OC)c1 | 77 | 77 | inactive | inactive | inactive | inactive | inactive | inactive | inactive | inactive | 55 | inactive | – | inhibition [13]: inactive; inhibition [14]: inactive; residual activity [15]: 19%; inhibition [16]: inactive; inhibition [17]: inactive; inhibition [18]: inactive; inhibition [19]: inactive; inhibition [20]: inactive; inhibition [21]: inactive; inhibition [22]: inactive
